Several values for one entry are separate records, joined by “and”; a condition that tells them apart may be missing. Equal entries are not always repeated. Inconclusive results and toxic doses are left out.
System: BDF1 mice, B16 melanoma ip, median survival T/C
Experiment: NCI In Vivo Anticancer Drug Screen. Data for tumor model B16 Melanoma (intraperitoneal) in B6D2F1 (BDF1) mice
Details: endpoint: median survival time, higher = longer survival
In short: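 Tumor-bearing mice received test compound or vehicle. Survival or tumor size was then measured in both groups. The treated-group figure was divided by the control-group figure.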

[1] = dose: 50.0 mg/kg/injection, schedule: Q01DX009 (ip), vehicle: saline
[2] = dose: 100.0 mg/kg/injection, schedule: Q01DX009 (ip), vehicle: saline
[3] = dose: 200.0 mg/kg/injection, schedule: Q01DX009 (ip), vehicle: saline
[4] = dose: 400.0 mg/kg/injection, schedule: Q01DX009 (ip), vehicle: saline
[5] = dose: 12.5 mg/kg/injection, schedule: Q01DX009 (ip), vehicle: saline
[6] = dose: 25.0 mg/kg/injection, schedule: Q01DX009 (ip), vehicle: saline
[7] = dose: 100.0 mg/kg/injection, schedule: Q01DX009 (ip), vehicle: Klucel (hydroxypropylcellulose) (HPC)
[8] = dose: 200.0 mg/kg/injection, schedule: Q01DX009 (ip), vehicle: Klucel (hydroxypropylcellulose) (HPC)
[9] = dose: 400.0 mg/kg/injection, schedule: Q01DX009 (ip), vehicle: Klucel (hydroxypropylcellulose) (HPC)
[10] = dose: 25.0 mg/kg/injection, schedule: Q01DX009 (ip), vehicle: saline with Tween-80
[11] = dose: 50.0 mg/kg/injection, schedule: Q01DX009 (ip), vehicle: saline with Tween-80
[12] = dose: 100.0 mg/kg/injection, schedule: Q01DX009 (ip), vehicle: saline with Tween-80
[13] = dose: 100.0 mg/kg/injection, schedule: Q04DX003 (ip), vehicle: saline with Tween-80
[14] = dose: 50.0 mg/kg/injection, schedule: Q01DX009 (ip), vehicle: Klucel (hydroxypropylcellulose) (HPC)
[15] = dose: 10.0 mg/kg/injection, schedule: Q01DX009 (ip), vehicle: saline
[16] = dose: 20.0 mg/kg/injection, schedule: Q01DX009 (ip), vehicle: saline
[17] = dose: 40.0 mg/kg/injection, schedule: Q01DX009 (ip), vehicle: saline
[18] = dose: 80.0 mg/kg/injection, schedule: Q01DX009 (ip), vehicle: saline
[19] = dose: 6.25 mg/kg/injection, schedule: Q01DX009 (ip), vehicle: saline with Tween-80
[20] = dose: 12.5 mg/kg/injection, schedule: Q01DX009 (ip), vehicle: saline with Tween-80

In the case of `O=[N+]([O-])O.[Ga]`, the T/C [1] was 102 % of control and the T/C [2] was 92 % of control.
For `O=C(CCl)N1c2ccccc2Oc2cc3ccccc3cc21`, the T/C [1] was 113 % of control, the T/C [2] was 106 % of control and the T/C [3] was 104 % of control. The T/C [4] was 109 % of control.
`O=S(=O)(O)O.[Ga]` was tested, and the T/C [5] was 101 % of control, the T/C [6] was 94 % of control and the T/C [1] was 91 % of control.
With `CCCCCCCCCCCCCC[N+](C)(C)CCCCCCCCCCCCCC` the T/C (dose: 6.0 mg/kg/injection, schedule: Q01DX009 (ip), vehicle: saline) was 88 % of control.
For `OCC1OC(n2cnc3c(Cl)ncnc32)C(O)C1O` (centres undefined), the T/C [5] was 123 % of control, the T/C [6] was 102 % of control and the T/C [1] was 108 % of control. For the same compound, the T/C [2] was 105 % of control, the T/C [3] was 106 % of control and the T/C [4] was 106 % of control.
For `COC1=C(C)C(=O)C2=C(C1=O)C(CO)N1C(C#N)C3CC4C(C1C2N1CCOC41)N3C` (centres undefined), the T/C (dose: 0.25 mg/kg/injection, schedule: Q01DX009 (ip), vehicle: saline + alcohol) was 117 % of control, the T/C (dose: 0.5 mg/kg/injection, schedule: Q01DX009 (ip), vehicle: saline + alcohol) was 117 % of control and the T/C (dose: 1.0 mg/kg/injection, schedule: Q01DX009 (ip), vehicle: saline + alcohol) was 112 % of control.
`CC(=O)Oc1ccc(OC(C)=O)c2c1C(=O)C=CC2=O` was tested, and the T/C (dose: 0.5 mg/kg/injection, schedule: Q01DX009 (ip), vehicle: Klucel (hydroxypropylcellulose) (HPC)) was 86 % of control and the T/C (dose: 1.0 mg/kg/injection, schedule: Q01DX009 (ip), vehicle: Klucel (hydroxypropylcellulose) (HPC)) was 88 % of control.
For `CNC(Cc1ccccc1)c1ccc(OC)c(OC)c1` (centres undefined), the T/C [7] was 100 % of control, the T/C [8] was 100 % of control and the T/C [9] was 103 % of control.
`CN(C)CCC1(c2ccccc2)C=Cc2ccccc21` (centres undefined) was tested, and the T/C (dose: 3.12 mg/kg/injection, schedule: Q01DX009 (ip), vehicle: saline) was 108 % of control, the T/C (dose: 6.25 mg/kg/injection, schedule: Q01DX009 (ip), vehicle: saline) was 102 % of control and the T/C [5] was 108 % of control. The T/C [6] was 95 % of control.
In the case of `O=C(CCCCl)CC(O)(C(F)(F)Cl)C(F)(F)Cl`, the T/C [10] was 114 % of control, the T/C (dose: 25.0 mg/kg/injection, schedule: Q04DX003 (ip), vehicle: saline with Tween-80) was 97 % of control and the T/C [11] was 114 % of control. For the same compound, the T/C (dose: 50.0 mg/kg/injection, schedule: Q04DX003 (ip), vehicle: saline with Tween-80) was 102 % of control, the T/C [12] was 117 % of control and the T/C [13] was 105 % of control.
In the case of `[Cl][Pt][Cl].[NH-]C(CO)C(=O)O` (centres undefined), the T/C (dose: 12.5 mg/kg/injection, schedule: Q01DX009 (ip), vehicle: water) was 151 % of control.
In the case of `Oc1c(CNCCCN2CCCC2)cc(Cl)c2cccnc12`, the T/C [5] was 94 % of control and 95 % of control and 106 % of control, the T/C [6] was 93 % of control and 98 % of control and 102 % of control and the T/C [1] was 94 % of control and 97 % of control and 98 % of control. The T/C [2] was 103 % of control and 108 % of control and 109 % of control.
For `[Cl][Ge]([Cl])([c]1ccccc1)[c]1ccccc1`, the T/C (dose: 25.0 mg/kg/injection, schedule: Q01DX009 (ip), vehicle: Klucel (hydroxypropylcellulose) (HPC)) was 93 % of control and the T/C [14] was 100 % of control.
With `O=C(OCc1ccccc1)C(=O)OCc1ccccc1` the T/C [12] was 121 % of control, the T/C [13] was 100 % of control and the T/C (dose: 200.0 mg/kg/injection, schedule: Q04DX003 (ip), vehicle: saline with Tween-80) was 107 % of control.
With `C/C=C1/C[C@@H](C)[C@@](C)(O)C(=O)OCC2=CC[N+]3([O-])CC[C@@H](OC1=O)[C@@H]23` (some centres undefined) the T/C [15] was 102 % of control, the T/C [16] was 106 % of control and the T/C [17] was 113 % of control. For the same compound, the T/C [18] was 102 % of control.
For `CNC(=S)N/N=C(\C=N\NC(=S)NC)c1ccc(C)cc1`, the T/C [14] was 101 % of control, the T/C [7] was 90 % of control and the T/C [8] was 89 % of control.
With `Cc1ccc(C)n1-c1ccccc1` the T/C (dose: 100.0 mg/kg/injection, schedule: Q01DX009 (ip), vehicle: saline + alcohol) was 101 % of control and the T/C (dose: 200.0 mg/kg/injection, schedule: Q01DX009 (ip), vehicle: saline + alcohol) was 99 % of control.
In the case of `NC(CS/C(Cl)=C/Cl)C(=O)O` (centres undefined), the T/C (dose: 12.0 mg/kg/injection, schedule: Q01DX009 (ip), vehicle: other) was 102 % of control, the T/C (dose: 18.0 mg/kg/injection, schedule: Q01DX009 (ip), vehicle: other) was 90 % of control and the T/C (dose: 27.0 mg/kg/injection, schedule: Q01DX009 (ip), vehicle: other) was 90 % of control.
`CC(C)(C)c1cc([N+](=O)[O-])cc([N+](=O)[O-])c1O` was tested, and the T/C (dose: 1.56 mg/kg/injection, schedule: Q01DX009 (ip), vehicle: saline with Tween-80) was 99 % of control, the T/C (dose: 3.13 mg/kg/injection, schedule: Q01DX009 (ip), vehicle: saline with Tween-80) was 96 % of control and the T/C [19] was 93 % of control. The T/C [20] was 89 % of control.
In the case of `CC(C)=CC(=O)CC(O)(C(F)(F)F)C(F)(F)Cl` (centres undefined), the T/C [19] was 97 % of control, the T/C (dose: 6.25 mg/kg/injection, schedule: Q04DX003 (ip), vehicle: saline) was 100 % of control and the T/C [20] was 90 % of control. The T/C (dose: 12.5 mg/kg/injection, schedule: Q04DX003 (ip), vehicle: saline) was 89 % of control, the T/C [10] was 92 % of control and the T/C (dose: 25.0 mg/kg/injection, schedule: Q04DX003 (ip), vehicle: saline) was 89 % of control.
`COc1cc2ccc3c[n+]4ccccc4cc3c2cc1OC` was tested, and the T/C (dose: 25.0 mg/kg/injection, schedule: Q04DX009 (ip), vehicle: Klucel (hydroxypropylcellulose) (HPC)) was 97 % of control, the T/C (dose: 50.0 mg/kg/injection, schedule: Q04DX009 (ip), vehicle: Klucel (hydroxypropylcellulose) (HPC)) was 93 % of control and the T/C (dose: 100.0 mg/kg/injection, schedule: Q04DX009 (ip), vehicle: Klucel (hydroxypropylcellulose) (HPC)) was 89 % of control. The T/C (dose: 150.0 mg/kg/injection, schedule: Q04DX009 (ip), vehicle: Klucel (hydroxypropylcellulose) (HPC)) was 95 % of control.
In the case of `C=C1C(=O)OC2CC(C)C3C4OC4C(O)C3(C)C(O)C12` (centres undefined), the T/C (dose: 9.38 mg/kg/injection, schedule: Q01DX009 (ip), vehicle: saline) was 94 % of control, the T/C (dose: 18.75 mg/kg/injection, schedule: Q01DX009 (ip), vehicle: saline) was 94 % of control and the T/C (dose: 37.5 mg/kg/injection, schedule: Q01DX009 (ip), vehicle: saline) was 103 % of control.
For `Cc1ccc(S(=O)(=O)N2CCC(O)(c3ccccc3)CC2)cc1`, the T/C (dose: 20.0 mg/kg/injection, schedule: Q01DX009 (ip), vehicle: Klucel (hydroxypropylcellulose) (HPC)) was 87 % of control, the T/C (dose: 100.0 mg/kg/injection, schedule: Q04DX003 (ip), vehicle: Klucel (hydroxypropylcellulose) (HPC)) was 95 % of control and the T/C (dose: 200.0 mg/kg/injection, schedule: Q04DX003 (ip), vehicle: Klucel (hydroxypropylcellulose) (HPC)) was 91 % of control. For the same compound, the T/C [9] was 119 % of control and the T/C (dose: 400.0 mg/kg/injection, schedule: Q04DX003 (ip), vehicle: Klucel (hydroxypropylcellulose) (HPC)) was 97 % of control.
In the case of `Cc1c(Cl)cccc1NC(=O)COc1ccc(Cl)cc1`, the T/C [20] was 96 % of control, the T/C [10] was 90 % of control and the T/C [11] was 88 % of control.
`COc1cc(Cc2nccc3cc(OC)c(OC)cc23)c(C(C)=O)c(OC)c1` was tested, and the T/C [15] was 101 % of control, the T/C [16] was 107 % of control and the T/C [17] was 107 % of control. For the same compound, the T/C [18] was 107 % of control.
`C/C(=N\O)c1ccccn1` was tested, and the T/C (dose: 50.0 mg/kg/injection, schedule: Q01DX009 (ip), vehicle: other) was 110 % of control, the T/C (dose: 100.0 mg/kg/injection, schedule: Q01DX009 (ip), vehicle: other) was 111 % of control and the T/C (dose: 200.0 mg/kg/injection, schedule: Q01DX009 (ip), vehicle: other) was 97 % of control. For the same compound, the T/C (dose: 400.0 mg/kg/injection, schedule: Q01DX009 (ip), vehicle: other) was 90 % of control.
For `COCC1OC(OC2C3=C(C(C)C)CCC3(C)/C=C3\C(CCC3(O)COC)C(C)C2O)C(O)C2OC3OC12OC3(C)C1CO1` (centres undefined), the T/C (dose: 1.5 mg/kg/injection, schedule: Q01DX009 (ip), vehicle: Klucel (hydroxypropylcellulose) (HPC)) was 93 % of control, the T/C (dose: 3.0 mg/kg/injection, schedule: Q01DX009 (ip), vehicle: Klucel (hydroxypropylcellulose) (HPC)) was 89 % of control and the T/C (dose: 6.0 mg/kg/injection, schedule: Q01DX009 (ip), vehicle: Klucel (hydroxypropylcellulose) (HPC)) was 98 % of control. The T/C (dose: 12.0 mg/kg/injection, schedule: Q01DX009 (ip), vehicle: Klucel (hydroxypropylcellulose) (HPC)) was 91 % of control and the T/C (dose: 24.0 mg/kg/injection, schedule: Q01DX009 (ip), vehicle: Klucel (hydroxypropylcellulose) (HPC)) was 105 % of control.
